Experimental data taken from US12251422B2, “Compositions and methods for treating neurological and other disorders” (Rush University Medical Center, priority 2018, dated 2025).

What was measured:
[1] = tested on: NF-κB; assay: NF-κB activation by EMSA in primary Tlr2−/− microglia; format: cell-based, mouse; settings: peptide 1 h, 1 μM fibrillar Aβ1-42 for 1 h
Method: (§1) FIG. 16 (A-F). […] Primary microglia isolated from WT (A) and TLR2 (−/−) (B) mice were treated with different concentrations of wtTIDM peptide for 1 h followed by stimulation with 1 μM fibrillar Aβ1-42 under serum-free condition. After 1 h of stimulation, the activation of NF-κB was monitored by EMSA. WT (C & D) and TLR2 (−/−) (E & F) microglia were treated with different concentrations of wtTIDM and mTIDM peptides for 1 h followed by stimulation with 1 μM fibrillar Aβ1-42 under serum-free condition. After 18 h of stimulation, levels of TNFα (C & E) and IL-1β (D & F) were monitored in supernatants by ELISA (n=2 replicates/condition in 3 independent experiments). ap<0.001 vs control; bp<0.001 vs stimuli by two-sample t-tests.
(§2) Nuclear extracts were isolated and EMSA was carried out as described before (22, 23).

[2] = tested on: 5×FAD Tg mice; assay: Glial activation and NF-κB in hippocampus of 5×FAD Tg mice; format: in vivo, mouse; settings: 0.1 mg/kg body wt/2 d intranasal, 30 d
Text: FIG. 5 (A-Q). […] Actin was run as loading control. […] M) Hippocampal sections were immunolabeled with 82E1 mAb. […] Arrowhead indicates 4 kDa Aβ band.
FIG. 18 (A-B). After intranasal delivery, wtTIDM peptide suppresses the activation of NF-κB in the hippocampus of Tg mice. […] After 30 d of treatment, hippocampal extracts of all groups of mice were immunoblotted for phospho-p65 (A). Actin was run as loading control.
FIG. 19. Intranasal delivery of wtTIDM, but not mTIDM, peptide suppresses microglial expression of iNOS in the hippocampus of Tg mice. […] After 30 d of treatment, mice were sacrificed and hippocampal sections were double-labeled for Iba-1 and iNOS. Results represent analysis of two sections from each of six different mice per group.
(§3) B6SJL-Tg (APPSwFlLon,PSEN1*M146L*L286V) 6799Vas/J transgenic (5×FAD or termed here as Tg) mice were purchased from Jackson Laboratories (Bar Harbor, ME). […] Briefly, TIDM peptides were dissolved in 5 μl normal saline, mice were hold in supine position and saline was delivered into one nostril using a pipetman.
Mice were anesthetized with ketamine-xylazine injectables and perfused with PBS and then with 4% (w/v) paraformaldehyde in PBS followed by dissection of the brain from each mouse for immunofluorescence microscopy (23, 59). […] The samples were mounted and observed under an Olympus IX81 fluorescence microscope. […]

[3] = tested on: NF-κB; assay: NF-κB activation by EMSA in primary microglia from WT mice; format: cell-based, mouse; settings: peptide 1 h, 1 μM fibrillar Aβ1-42 for 1 h
Method: as §1, §2

[4] = tested on: 5×FAD Tg mice; assay: Barnes maze and T maze in 5×FAD Tg mice; format: in vivo, mouse
Text: (§4) FIG. 6 (A-N). Intranasal delivery of wtTIDM, but not mTIDM, peptide inhibits neuronal apoptosis in vivo in the hippocampus and improves memory and learning in Tg mice. […] After 30 d of treatment, mice were sacrificed and hippocampal sections were double-labeled for TUNEL & NeuN (A). […] Hippocampal extracts of all groups of mice (n=4) were immunoblotted for cleaved caspase 3 (D). Actin was run as loading control. E) Bands were scanned and values (cleaved caspase 3/Actin) are presented as relative to non-Tg control. […] Protein levels of PSD-95. NR2A and GluR1 were monitored in hippocampal extracts by Western blot (F). Bands were scanned and values (G, PSD-95/Actin; H, NR2A/Actin; I, GluR1/Actin) are presented as relative to non-Tg control. […] Mice were tested for Barnes maze (J, latency; K, number of errors made) and T maze (L, number of positive turns; M, number of negative turns). Short-term memory was also monitored by novel object recognition test, which is represented by discrimination index (N). Eight mice (n=8) were used in each group and results were analyzed by one-way ANOVA.
Maze experiments were performed as described by us (52, 57). Briefly, for Barnes maze, mice were trained for 2 consecutive days followed by examination on day 3. […]

[5] = tested on: 5×FAD Tg mice; assay: Neuronal apoptosis and plasticity-related molecules in hippocampus of 5×FAD Tg mice; format: in vivo, mouse; settings: 0.1 mg/kg body wt/2 d intranasal, 30 d
Text: as §4, §3
It was performed using a commercially available kit (TdT FragEL™, Calbiochem) as described before (10, 22).

Question: How did the “inhibition of fibrillar Aβ1-42-induced activation of NF-κB in Tlr2−/− microglia” value [1] turn out when `CC[C@H](C)[C@H](NC(=O)[C@H](CCCCN)NC(=O)[C@@H](NC(=O)[C@H](CCC(N)=O)NC(=O)[C@H](CCCNC(=N)N)NC(=O)[C@@H](N)CC(=O)O)[C@@H](C)CC)C(=O)N[C@@H](Cc1c[nH]c2ccccc12)C(=O)N[C@@H](Cc1ccccc1)C(=O)N[C@@H](CCC(N)=O)C(=O)N[C@@H](CC(N)=O)C(=O)N[C@@H](CCCNC(=N)N)C(=O)N[C@@H](CCCNC(=N)N)C(=O)N[C@@H](CCSC)C(=O)N[C@@H](CCCCN)C(=O)N[C@@H](Cc1c[nH]c2ccccc12)C(=O)N[C@@H](CCCCN)C(=O)N[C@@H](CCCCN)C(=O)N1CCC[C@H]1C(=O)NCC(=O)N[C@@H](C)C(=O)N[C@@H](Cc1c[nH]cn1)C(=O)N[C@@H](CCC(N)=O)C(=O)N[C@@H](CCCCN)C(=O)O` [wtTIDM, drqikiwfqnrrmkwkkPGAHQK] was run?
Answer: remained unable to inhibit

Question: And the “Iba-1 and phospho-p65 in the hippocampus” value [2]?
Answer: suppression

Question: And the “expression of iNOS in the hippocampus” value [2]?
Answer: suppressed

Question: What about the “inhibition of fibrillar Aβ1-42-induced activation of NF-κB in WT primary microglia” value [3] of the same compound?
Answer: inhibited

Question: And the “memory functions in Barnes maze (latency, number of errors)” value ([4]; 0.1 mg/kg body wt/2 d intranasal, 30 d)?
Answer: significantly improved

Question: And the “spatial learning and memory in Tg mice” value ([4]; summary statement)?
Answer: improved

Question: And the “PSD-95, NR2A and GluR1 proteins in the hippocampus” value [5]?
Answer: significant restoration

Question: What about the “elevated level of cleaved caspase 3 in the hippocampus” value [5] of the same compound?
Answer: reduced

Question: What about the “neuronal apoptosis in the hippocampus (TUNEL & NeuN)” value [5] of the same compound?
Answer: attenuated
